Patent US5240961A, “Method of treating reduced insulin-like growth factor and bone loss associated with aging” (priority 1992, dated 1993)
Where “and” joins values, the source holds several entries; their conditions need not be identical. Identical values can stand only once. Entries after “also recorded” stand apart in the source; their conditions may differ. Like-named read-outs stand apart in the source and are kept apart here.

What was measured:
Format in all cases: in vivo, human
[1] = tested on: bone mineral content of thoracic vertebrae; assay: Bone mineral content of thoracic vertebrae by bone scan (Example 4)
Method: (§1) Seven adults from Example 3 agreed to receive a daily dosage of L-carnitine of 2 g/day, self-administered orally, for three months. Doses were administered four times daily, and each dose consisted of two 250 mg tablets. Of the seven individuals, two individuals dropped out of the study due to unrelated illness; thus, five remained in the study to completion. The following were evaluated by pretreatment and posttreatment comparisons: serum carnitine and serum IGF-1 by known methods, and bone mineral contents by bone scan of thoracic region, i.e., thoracic vertebrae, on a NORLAND scanner.

serum IGF-1 = assay: Serum IGF-1 after oral L-carnitine, double-blind study in patients over 60 (Example 5); conditions: for IGF-1: individual subjects 010-019, 2 g/day oral; for average serum IGF-1: treatment group average
Method: (§2) The present invention is further explained by the following examples which should not be construed by way of limiting the scope of the present invention. In the following examples, serum carnitine levels were determined by the method of R. Parvin et al., Anal. Biochem., vol. 79 (1979) pp. 190-201. Serum IGF-1 concentrations were measured by immunoradiometric assay, for example, by IRMA Kit available from Diagnostic Systems Laboratories, Inc., Webster, Texas. Serum osteocalcin levels were measured according to the method of Grunaberg et al., Meth. Enzymology, vol 107 (1984) 516, and which is embodied in an osteocalcin kit available from Biomedical Technologies, Inc., Stoughton, Mass. All mice used in the animal studies were BALB/c strain which is commercially available.
(§3) Nineteen patients (over age 60) were enrolled in a preliminary double-blindstudy to establish the effect of oral L-carnitine treatment on serum IGF-1 and osteocalcin levels. Baseline, i.e., pretreatment, levels of serum IGF-1, osteocalcin and carnitine were measured by known methods. The patients were divided into two groups, control (n=9; subjects 001-009 in Table 5 below) and treatment (n=10; subjects 010-019 in Table 5 below). The treatment group received a daily dosage of 2 g of L-carnitine orally, self-administered, in four separate doses of two 250 mg tablets taken four times per day, for twelve weeks. The control group were given placebo, e.g., simple sugar. Serum samples were drawn every four weeks, and serum carnitine, IGF-1 and osteocalcin were determined.

serum osteocalcin = assay: Serum osteocalcin after oral L-carnitine, double-blind study in patients over 60 (Example 5); conditions: for Osteocalcin: individual subjects 010-019, 2 g/day oral; for average serum osteocalcin: treatment group average
Method: as §2, §3

serum carnitine = assay: Serum carnitine after oral L-carnitine in healthy adults over 60 (Example 4); conditions: individual subjects, 2 g/day oral, three months; for concentration: 131400 min
Method: as §2, §1

[2] = as above; conditions: human, serum, po, 2 g/day, individual subjects, 2 g/day oral, three months
Method: as §2, §1

[3] = read-out: Carnitine, Free, posttreatment
[4] = read-out: Carnitine, Total, posttreatment

Question: Which results are given for `C[N+](C)(C)C[C@H](O)CC(=O)[O-]` [L-carnitine]?
Answer: bone mineral content of the thoracic vertebral region ([1]; all patients, after treatment): all patients demonstrated an increase in bone mineral content of the thoracic vertebral region; Bone mineral content, post treatment ([1]; individual subjects, 2 g/day oral, three months): 427.0 g and 1118.4 g and 986.1 g and 736.2 g and 887.7 g; Bone mineral content, change ([1]; individual subjects, post vs pre treatment, 2 g/day oral, three months): +3.85% and +1.39% and +5.69% and +0.72% and +7.35%; IGF-1 vs control at eight and twelve weeks, significance (serum IGF-1; eight and twelve weeks): just below significance; correlation between pretreatment IGF-1 and increase in IGF-1 (serum IGF-1; five treated patients with pretreatment IGF-1 under 200 ng/ml, four weeks): -0.654; serum IGF-1 after treatment (serum IGF-1; four, eight and twelve week intervals, 1 unit=240 ng): above 500 U/L; IGF-1 (serum IGF-1; 4 weeks): 118 ng/mL and 192 ng/mL and 62 ng/mL and 213 ng/mL and 305 ng/mL and 318 ng/mL and 185 ng/mL and 178 ng/mL and 244 ng/mL and 173 ng/mL; IGF-1 (serum IGF-1; 8 weeks): 147 ng/mL and 197 ng/mL and 248 ng/mL and 157 ng/mL and 329 ng/mL and 201 ng/mL and 163 ng/mL and 168 ng/mL; IGF-1 (serum IGF-1; 12 weeks): 108 ng/mL and 157 ng/mL and 179 ng/mL and 260 ng/mL and 185 ng/mL and 207 ng/mL; average serum IGF-1 (serum IGF-1; eight weeks): 200.8 ng/mL; average serum IGF-1 (serum IGF-1; four weeks): 214.0 ng/mL; average serum IGF-1 (serum IGF-1; twelve weeks): 193.7 ng/mL; IGF-1 response (serum IGF-1; twelve week test period): increased in the carnitine treatment group; also recorded: the lower the baseline level of IGF-1, the greater the increase in IGF-1; also recorded: restored and maintained IGF-1 levels at the normal range; osteocalcin vs control, significance (serum osteocalcin; 4, 8 and 12 weeks): just below significance; Osteocalcin (serum osteocalcin; 4 weeks): 11.8 ng/mL and 13.6 ng/mL and 7.4 ng/mL and 11.5 ng/mL and 7.9 ng/mL and 10.4 ng/mL and 11.6 ng/mL and 3.6 ng/mL and 5.9 ng/mL; Osteocalcin (serum osteocalcin; 8 weeks): 11.9 ng/mL and 10.2 ng/mL and 7.0 ng/mL and 10.8 ng/mL and 9.0 ng/mL and 11.0 ng/mL and 2.4 ng/mL and 4.9 ng/mL; Osteocalcin (serum osteocalcin; 12 weeks): 9.3 ng/mL and 11.8 ng/mL and 8.7 ng/mL and 7.0 ng/mL and 9.1 ng/mL and 11.4 ng/mL and 6.5 ng/mL; average serum osteocalcin (serum osteocalcin; eight weeks): 8.4 ng/mL; average serum osteocalcin (serum osteocalcin; four weeks): 9.2 ng/mL; average serum osteocalcin (serum osteocalcin; twelve weeks): 9.1 ng/mL; concentration (serum carnitine; [3]): 57 µM and 55.4 µM and 38.6 µM and 44.8 µM; concentration (serum carnitine; [4]): 70.7 µM and 68.9 µM and 54.7 µM and 73.4 µM; Carnitine E/F, posttreatment (serum carnitine; ratio esterified/free): 0.32 and 0.24 and 0.42 and 0.64; concentration at 2190 h [2, 3]: 77.2 µM; concentration at 2190 h [2, 4]: 102 µM
